How the values were obtained:
[1] = molecular target: T1, Estrogen Receptor (ERα) in MCF-7 human ductal carcinoma breast cell line (Homo sapiens, UniProt P03372); assay: MCF-7 ER degradation assay (cell based immuno-fluorescence); conditions: MCF-7 cells; for DC50: 18-22 hours incubation, 50% reduction of ERα expression, single experiment or average of two or more, read-out: MCF-7 ER degradation IC50
T1 construct: endogenous in cells; host or cells: MCF-7
T1 sequence (P03372 1-595): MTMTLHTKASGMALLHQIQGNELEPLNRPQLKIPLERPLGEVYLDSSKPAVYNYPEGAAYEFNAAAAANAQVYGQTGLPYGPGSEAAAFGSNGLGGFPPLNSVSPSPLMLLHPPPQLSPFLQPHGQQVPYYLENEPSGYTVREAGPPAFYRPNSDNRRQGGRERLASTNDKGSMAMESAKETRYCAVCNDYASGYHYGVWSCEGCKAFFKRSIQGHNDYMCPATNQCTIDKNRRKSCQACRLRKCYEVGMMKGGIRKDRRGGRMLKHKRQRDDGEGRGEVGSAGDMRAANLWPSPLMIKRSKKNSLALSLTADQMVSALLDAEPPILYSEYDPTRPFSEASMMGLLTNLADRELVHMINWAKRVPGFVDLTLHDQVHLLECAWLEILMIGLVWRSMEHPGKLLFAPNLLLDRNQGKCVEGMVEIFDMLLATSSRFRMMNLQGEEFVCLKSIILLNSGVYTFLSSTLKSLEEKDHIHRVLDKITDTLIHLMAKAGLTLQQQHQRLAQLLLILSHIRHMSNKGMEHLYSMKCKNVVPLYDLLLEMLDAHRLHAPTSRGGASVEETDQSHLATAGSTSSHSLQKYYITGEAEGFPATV
How it was run: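 MCF-7 human ductal carcinoma breast cells were seeded at 3.75×10^4 cells per mL (40 μL per well) in 384 well plates with phenol red free DMEM containing 2 mM L-Glutamine and 5% (v/v) Charcoal/Dextran treated foetal calf serum. After overnight culture, compounds were acoustically dispensed, incubated 18-22 hours, then cells were formaldehyde-fixed and immunostained for ERα.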

[2] = molecular target: T2, recombinant human Estrogen Receptor alpha ligand binding domain, residues 307-554 (ER alpha-LBD (GST)) (Homo sapiens, UniProt P03372); assay: ERα binding assay (LanthaScreen TR-FRET competition); conditions: TR-FRET competition with Fluormone ES2 tracer, 4 hours at room temperature; single experiment or average of two or more
T2 construct: made in house
T2 sequence (P03372 307-554): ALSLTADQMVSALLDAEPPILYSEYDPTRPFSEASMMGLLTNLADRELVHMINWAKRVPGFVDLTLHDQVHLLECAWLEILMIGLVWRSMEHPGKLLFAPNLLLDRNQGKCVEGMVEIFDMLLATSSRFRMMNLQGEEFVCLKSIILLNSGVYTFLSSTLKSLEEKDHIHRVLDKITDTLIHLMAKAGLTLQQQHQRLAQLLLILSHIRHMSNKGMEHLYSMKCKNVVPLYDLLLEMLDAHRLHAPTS

| SMILES | ER degradation ≥ 90% at 0.3 μM ([1]; 0.3 μM, ER degradation by fulvestrant at 0.3 μM is defined as 100%) | IC50 [2] | DC50 [1] |
| --- | --- | --- | --- |
| Cc1ncsc1-c1ccc(CNC(=O)[C@@H]2C[C@@H](O)CN2C(=O)[C@@H](NC(=O)COCCCOCCOc2cc(F)c([C@@H]3c4[nH]c5ccccc5c4C[C@@H](C)N3CC(C)(C)F)c(F)c2)C(C)(C)C)cc1 [Example 25, (2S,4R)-1-((S)-2-(2-(3-(2-(3,5-Difluoro-4-((1R,3R)-2-(2-fluoro-2-methylpropyl)-3-methyl-2,3,4,9-tetrahydro-1H-pyrido[3,4-b]indol-1-yl)phenoxy)ethoxy)propoxy)acetamido)-3,3-dimethylbutanoyl)-4-hydroxy-N-(4-(4-methylthiazol-5-yl)benzyl)pyrrolidine-2-carboxamide] | •• | 0.5 nM | – |
| Cc1ncsc1-c1ccc([C@H](C)NC(=O)[C@@H]2C[C@@H](O)CN2C(=O)[C@@H](NC(=O)COCCCOCCCCOc2cc(F)c([C@@H]3c4[nH]c5ccccc5c4C[C@@H](C)N3CC(C)(C)F)c(F)c2)C(C)(C)C)cc1 [Example 155, (2S,4R)-1-((S)-2-(2-(3-(4-(3,5-Difluoro-4-((1R,3R)-2-(2-fluoro-2-methylpropyl)-3-methyl-2,3,4,9-tetrahydro-1H-pyrido[3,4-b]indol-1-yl)phenoxy)butoxy)propoxy)acetamido)-3,3-dimethylbutanoyl)-4-hydroxy-N—((S)-1-(4-(4-methylthiazol-5-yl)phenyl)ethyl)pyrrolidine-2-carboxamide] | – | 0.3 nM | 0.7 nM |
| Cc1ncsc1-c1ccc(CNC(=O)[C@@H]2C[C@@H](O)CN2C(=O)[C@@H](NC(=O)COCC/C=C/CCOc2ccc([C@@H]3c4[nH]c5ccccc5c4C[C@@H](C)N3CC(F)F)nc2)C(C)(C)C)cc1 [Example 21, (2S,4R)-1-((S)-2-(2-(((E)-6-((6-((1S,3R)-2-(2,2-Difluoroethyl)-3-methyl-2,3,4,9-tetrahydro-1H-pyrido[3,4-b]indol-1-yl)pyridin-3-yl)oxy)hex-3-en-1-yl)oxy)acetamido)-3,3-dimethylbutanoyl)-4-hydroxy-N-(4-(4-methylthiazol-5-yl)benzyl)pyrrolidine-2-carboxamide] | – | 13 nM | 300 nM |
| Cc1ncsc1-c1ccc(CNC(=O)[C@@H]2C[C@@H](O)CN2C(=O)[C@@H](NC(=O)CN2CC3(CCN(CCOc4cc(F)c([C@@H]5c6[nH]c7ccccc7c6C[C@@H](C)N5CC(C)(C)F)c(F)c4)CC3)C2)C(C)(C)C)cc1 [Example 42, (2S,4R)-1-((S)-2-(2-(7-(2-(3,5-difluoro-4-((1R,3R)-2-(2-fluoro-2-methylpropyl)-3-methyl-2,3,4,9-tetrahydro-1H-pyrido[3,4-b]indol-1-yl)phenoxy)ethyl)-2,7-diazaspiro[3.5]nonan-2-yl)acetamido)-3,3-dimethylbutanoyl)-4-hydroxy-N-(4-(4-methylthiazol-5-yl)benzyl)pyrrolidine-2-carboxamide] | – | 1.3 nM | 1.9 nM |
